Results taken from patent US20130096054A1, “LATENT HUMAN IMMUNODEFICIENCY VIRUS REACTIVIATION” (priority 2010, published 2013).
Where two headings read alike, the source gives them in different places. Where a SMILES comes first, the peptide text is derived from it. The star is where a group is joined. Cbz = O=C(OCc1ccccc1)*

Experiments:
[1] = system: latently HIV-1 infected CA5 T cells; conditions: for priming effect on HIV-1 reactivation by sub-optimal dose of HRF: pretreatment with increasing concentrations, then sub-optimal HRF
Description: CA5 T cells were pretreated with increasing concentrations of dactinomycin (DM) (FIG. 11A), the DNA intercalator daunorubicin (DR) (FIG. 11B), or the transcription inhibitors DRB (FIG. 11 C) and α-amanitin (FIG. 11D) (concentrations indicated). The cells were then left unstimulated (white circles) or activated with a sub-optimal concentration of HRF (black circles). Reactivation levels were determined as the percentage of GFP-positive cells 24 hours after stimulation. Viability of the cells correlates with the size of the symbol (size range adjusted to 5-95%).
Infection levels in the cell cultures were monitored by flow cytometric analysis of EGFP expression. Flow cytometric analysis was performed on a GUAVA EasyCyte (Millipore; Billerica, Mass.), or a LSRII (Becton & Dickinson; Franklin Lakes, N.J.).
Bacteria from various sources were isolated on TSA II agar plates containing 5% sheep blood. Bacterial isolates were then grown in RPMI 1640 medium supplemented with 10% FBS. After two days of incubation at 37° C. bacteria were pelleted and resuspended in RPMI medium to an optical density (OD600) of 8, aliquoted and frozen at −80° C. Unless otherwise indicated, Massilia timonae was grown in RPMI 1640 medium supplemented with 10% FBS. Typically, medium was inoculated with Massilia timonae from frozen stocks to an OD600 of 0.01. After 48 hours at 37° C., the culture was centrifuged at 3200 g to separate bacteria from the culture medium. Bacteria were resuspended in fresh medium to an OD600 of 8 and frozen to be used as references and stock cultures. The supernatant was then centrifuged at 10,000 g for 20 minutes and sterilized by passage through an 0.2 μm PVDF filter with low protein binding ability. HRF activity was determined by its ability to reactivate latent HIV-1 infection in CA5 cells. Only supernatants of which 6 μl reactivated infection in at least 60% of CA5 cells were used to study HRF properties.
(§1) Infection levels in the cell cultures were monitored by flow cytometric (FCM) analysis of GFP expression. FCM analysis was performed on a GUAVA EasyCyte (GUAVA Technologies, Inc.; Millipore; Billerica, Mass.) and a BD FACSCalibur or a LSR11 (Becton & Dickinson; Franklin Lakes, N.J.). Cell sorting experiments were performed using a FACSAria™ Flow Cytometer (Becton&Dickinson). Data analysis was performed using either CellQuest (Becton&Dickinson) or GUAVA Express (GUAVA Technologies, Inc.).
To identify the optimal concentration of dactinomycin, CA5 T cells were pretreated with increasing concentrations of dactinomycin (0.0001 and 1 μg/ml), and then left untreated or stimulated with a sub-optimal concentration of HRF or TNF-α. […] Twenty four hours after activator addition, levels of HIV-1 reactivation were determined as the percentage of GFP-positive cells using flow cytometric analysis, which allowed for the simultaneous determination of cell viability.

[2] = system: HIV-1 LTR (integrated LTR-EGFP construct, NOMI cells); assay: Tat-independent activation of integrated LTR-GFP construct in NOMI reporter T cells; format: cell-based; conditions: 24 hours
Description: (§2) FIGS. 6A-6C show HRF triggers suboptimal functional induction of NF-κB dependent gene expression. […] The HIV-1 reactivating kinetics were determined by stimulating CA5 T cells with optimal concentrations of HRF, phorbol 12-myristate 13-acetate (PMA) and tumor necrosis factor-α (TNF-α) and analyzing HIV-1 reactivation as a function of EGFP-expression over a period of 48 hours. Data for all agents are depicted as the percentage of EGFP-positive cells in the total cell population. […] To test the ability of HRF to mediate Tat-independent activation of the HIV-1 LTR, NOMI cells (HIV-1 reporter cell line with an integrated LTR-EGFP construct) were stimulated with increasing concentrations of PMA (0.01-10 ng/ml), TNF-α (0.003-30 μg/ml) and HRF supernatant (0.3-100 μl). The level of LTR-induction was then measured as EGFP-expression detectable after 24 hours as determined by flow cytometric analysis. Arrows indicate the concentrations at which the respective stimulus would have triggered full HIV-1 reactivation in the latently HIV-1 infected CA5 T cell line. […] 293T cells were transfected with several NF-κB dependent promoter constructs and then stimulated with either TNF-α (10 μg/ml) or HRF (25 μl). Promoter induction was measured as total EGFP expression. […]

[3] = system: latently HIV-2 infected J2574 reporter T cells (HIV-2 7312A); assay: Reactivation of latent HIV-2 infection in J2574 reporter T cells; format: cell-based; conditions: GFP-negative sorted population
Description: J2574 reporter T cells were infected with HIV-2 7312A and a latently infected cell population was established (>90% latently infected cells). The cell population was then pretreated with varying concentrations of dactinomycin (0-8 ng/ml) for 18 hours and then either left untreated (C) or stimulated with a sub-optimal dose of HRF, which by itself triggered reactivation in 10% of the cells. Reactivation levels were determined 24 hours post HRF activation by quantifying the level of GFP-positive cells using flow cytometric analysis.
J2574 reporter T cells were generated by retrovirally transducing Jurkat T cells with a HIV-1 reporter construct (p2574) in which the HIV-1 LTR controls the expression of GFP. The HIV-1 LTR and the GFP gene are separated by a 2,500 base pair (bp) spacer element. Lentiviral particles were produced by transfecting 293T cells with p2574 and supplying gag-pol-rev-tat in trans. VSV-G was used as viral envelope protein. Following lentiviral transduction of Jurkat cells, all cells that spontaneously expressed GFP were removed by cell sorting. The GFP-negative population was then activated with PMA to identify all cells that would harbor an inducible LTR-GFP-LTR integration event. Cells that turned GFP-positive following stimulation were again selected by cell sorting. GFP expression in this population ceased after a few days leaving a population of GFP-negative reporter cells. The amount of founder cells for this population is calculated to represent >50,000 individual integration events.
To determine the ability of dactinomycin to prime a latent HIV-2 infection, a latently HIV-2 infected population of GFP reporter T cells were tested. Briefly, to create the latent HIV-2 infected population, J2574 reporter cells were infected with HIV-2 7312A and a population of latently HIV-2 infected cells was generated by removing the actively infected, GFP-positive cells using a fluorescence activated cell sorter.

[4] = system: latently HIV-1 infected J89GFP T cells; assay: HIV-1 reactivation in latently HIV-1 infected J89GFP T cells (flow cytometry / HTS); format: cell-based; conditions: 10 ng/ml PMA, three J89GFP populations
Description: as §1

[5] = system: chronically actively infected T cell lines JNLG#35 and JNLG#44; assay: Active HIV-1 transcription in chronically actively infected GFP-reporter T cells (GFP MCF); format: cell-based; conditions: 48 hours after addition
Description: Changes in HIV-1 transcription levels were determined after 48 hours by measuring GFP mean channel fluorescence intensity (GFP MCF). GFP MCF was plotted over the drug concentration for dactinomycin (FIG. 12A), the DNA intercalators daunorubicin (DM) (FIG. 12B) and rebeccamycin (RM) (FIG. 12C), as well as the transcription inhibitors ICRF-193 (FIG. 12D), DRB (FIG. 12E) and α-amanitin (FIG. 12F). The size of symbols indicates the respective cell viability in the sample (size range adjusted to 5-95%).
For this purpose, each of the compounds was titrated over a relevant range of concentrations on two chronically actively infected T cell lines (JNLG#35 and JNLG#44). These clonal cell lines are infected with a GFP-reporter virus. Forty eight hours after addition of the compounds, the effect of each compound on HIV-1 transcription was determined by flow cytometric analysis quantifying GFP mean channel fluorescence intensity (MCF).

[6] = system: NF-κB dependent promoters in 293T cells; assay: NF-κB dependent promoter GFP constructs transfected into 293T cells; format: cell-based
Description: as §2

OC[C@H]1O[C@@H](n2cnc3cc(Cl)c(Cl)cc32)[C@H](O)[C@@H]1O [DRB, 5,6 dichloro-beta-D-ribofuranosylbenzimidazole]
cytotoxicity at higher concentrations [1]: high levels of cytotoxicity | effect of higher concentrations on HIV-1 reactivation triggered by HRF or TNF-α [1]: inhibit HIV-1 reactivation

O=C1[O][Pt]2([NH][C@@H]3CCCC[C@H]3[NH]2)[O]C1=O [oxaliplatin]
priming effect on HIV-1 reactivation by sub-optimal dose of HRF [1]: not reproduced

CC[C@@]1(O)C[C@H](O[C@H]2C[C@H](N(C)C)[C@H](O[C@H]3C[C@H](O)[C@H](O[C@H]4CCC(=O)[C@H](C)O4)[C@H](C)O3)[C@H](C)O2)c2c(cc3c(c2O)C(=O)c2c(O)cccc2C3=O)[C@H]1C(=O)OC [aclacinomycin]
priming effect on HIV-1 reactivation by sub-optimal dose of HRF [1]: strong priming effect

CCCCCCCCCCCCCC(=O)O[C@@H]1[C@@H](C)[C@@]2(O)[C@@H](C=C(CO)C[C@]3(O)C(=O)C(C)=C[C@@H]23)[C@@H]2C(C)(C)[C@]12OC(C)=O [PMA, 13-phorbol-12-myristate acetate]
Tat-independent activation of integrated LTR-GFP construct (GFP expression) [2]: stimulated Tat-independent activation of the integrated LTR-GFP construct | cells latently infected as revealed by PMA stimulation [3]: > 90% | maximum achievable HIV-1 reactivation levels [4]: 90±3%

CC[C@H](C)[C@@H]1NC(=O)CNC(=O)[C@@H]2Cc3c([nH]c4cc(O)ccc34)[S+]([O-])C[C@@H](NC(=O)CNC1=O)C(=O)N[C@@H](CC(N)=O)C(=O)N1C[C@H](O)C[C@H]1C(=O)N[C@@H]([C@@H](C)[C@@H](O)CO)C(=O)N2 (stereo in doubt) [α-amanitin]
cytotoxicity at higher concentrations [1]: high levels of cytotoxicity | effect of higher concentrations on HIV-1 reactivation triggered by HRF or TNF-α [1]: inhibit HIV-1 reactivation | priming effect on HIV-1 reactivation by sub-optimal dose of HRF [1]: None of the inhibitors exerted a priming effect | priming effect on HIV-1 reactivation by sub-optimal dose of HRF ([1]; listed as α-aminitin): did not exhibit any priming effect

CC[C@@]1(O)C(=O)OCc2c1cc1n(c2=O)Cc2cc3ccccc3nc2-1 [camptothecin]
priming effect on HIV-1 reactivation by sub-optimal dose of HRF [1]: None of the inhibitors exerted a priming effect

COc1cccc2c1C(=O)c1c(O)c3c(c(O)c1C2=O)C[C@@](O)(C(C)=O)C[C@@H]3O[C@H]1C[C@H](N)[C@H](O)[C@H](C)O1 [daunorubicin]
effect on active HIV-1 infection / transcription (GFP MCF) [5]: boosted active HIV-1 transcription

CC(C)C[C@@H](C=O)NC(=O)[C@H](CC(C)C)NC(=O)[C@H](CC(C)C)NC(=O)OCc1ccccc1 [MG132] (Cbz-Leu-Leu-Leu-aldehyde)
priming effect on HIV-1 reactivation by sub-optimal dose of HRF [1]: did not exhibit any priming effect

CC(=O)NCCCCCCNC(C)=O [HMBA, Hexamethylene bisacetamide]
reactivation levels ([1]; HMBA alone, compared to TNF-α, PMA or HRF): < 40% | cells with reactivated HIV-1 ([1]; HMBA at 3 mM): 15% | cells with reactivated HIV-1 ([1]; HMBA at 9 mM): 35% | compound toxicity ([1]; HMBA at 9 mM): onset of compound toxicity | reactivation ([1]; combination of HMBA and TNF-α): 81% | reactivation ([1]; optimal dose of HMBA alone): 27% | priming of latent HIV-1 infection for reactivation by sub-optimal TNF-α ([1]; sub-toxic concentrations): relatively potent at priming latent HIV-1 infection for full reactivation | optimal concentration as HIV-1 priming agent, prior to onset of drug mediated toxicities ([1]; titration on CA5 T cells): 3 to 10 mM

CO[C@H]1[C@H](O)[C@@H](O)[C@H](n2c3c(Cl)cccc3c3c4c(c5c6cccc(Cl)c6[nH]c5c32)C(=O)NC4=O)O[C@@H]1CO [rebeccamycin]
priming effect on HIV-1 reactivation by sub-optimal dose of HRF [1]: not reproduced | effect on active HIV-1 infection / transcription (GFP MCF) [5]: boosted active HIV-1 transcription

TNF-α
Tat-independent activation of integrated LTR-GFP construct (GFP expression) [2]: stimulated Tat-independent activation of the integrated LTR-GFP construct | reactivation ([1]; sub-optimal dose of TNF-α alone): 32% | GFP expression driven by NF-κB responsive promoter constructs (IL-8, TNF-α, HIV-1 LTR, three consensus NF-κB sites) ([6]; TNF-α 10 μg/ml or HRF 25 μl): efficiently induced | GFP expression of construct under murine stem cell virus LTR (no NF-κB responsive element) ([6]; control construct): Neither TNF-α nor HRF influenced GFP expression
